According to patent publication US20140329681A1, “METHOD FOR CONTROLLING WEEDS IN SUGAR CANE FIELD” (SUMITOMO CHEMICAL COMPANY, LIMITED, priority 2011, published 2014):

Assays:
[1] = test system: Amaranthus retroflexus; test: Pot test, herbicide sprayed on the soil surface after planting one-node stem cuttings: herbicidal efficacy; format: in vivo; details: Example 5; cuttings treated with strobilurin fungicides (kresoxim-methyl, azoxystrobin etc.); soil surface spray on day of planting; four weeks after application
Experimental: (§1) Stem cuttings of sugar cane, 30 cm to 40 cm long, are placed in wet soil to stimulate germination. Stem cuttings on which a bud grows to about 1 cm long are selected and the stem cuttings are cut to have one node and a length of 3 cm. Plastic pots are filled with soil and Amaranthus retroflexus is seeded therein. The stem cuttings of sugar cane are planted in the soil in the pots at a depth of 2 cm. […] The test pots are then placed in a greenhouse.
(§2) The herbicidal efficacy and phytotoxicity are determined four weeks after the application of the herbicides.
as §1, with “3 cm. The stem cuttings are treated with clothianidin, thiamethoxam, imidacloprid, dinotefuran, nitenpyram, acetamiprid, or thiacloprid. Plastic pots” for “3 cm. Plastic pots”, “sugar cane treated with the pesticides are planted” for “sugar cane are planted”
(§3) Stem cuttings of sugar cane, 30 cm to 40 cm long, are placed in wet soil to stimulate germination. Stem cuttings on which a bud grows to about 1 cm long are selected and the stem cuttings are cut to have one node and a length of 3 cm. The stem cuttings are treated with kresoxim-methyl, azoxystrobin, trifloxystrobin, fluoxastrobin, picoxystrobin, pyraclostrobin, dimoxystrobin, pyribencarb, metominostrobin, orysastrobin, enestrobin, pyraoxystrobin, or pyrametostrobin. Plastic pots are filled with soil and Amaranthus retroflexus is seeded therein. The stem cuttings of sugar cane treated with the fungicides are planted in the soil in the pots at a depth of 2 cm. […] The test pots are then placed in a greenhouse. The herbicidal efficacy and phytotoxicity are determined four weeks after the application of the herbicides.
Stem cuttings of sugar cane, 30 cm to 40 cm long, are placed in wet soil to stimulate germination. Stem cuttings on which a bud grows to about 1 cm long are selected and the stem cuttings are cut to have one node and a length of 3 cm. The stem cuttings are treated with azaconazole, bitertanol, bromuconazole, cyproconazole, difenoconazole, diniconazole, epoxiconazole, fenbuconazole, fluquinoconazole, flusilazole, flutriafol, hexaconazole, imibenconazole, ipconazole, metconazole, myclobutanil, penconazole, propiconazole, prothioconazole, simeconazole, tebuconazole, tetraconazole, triadimenol, triticonazole, fenarimol, nuarimol, pyrifenox, imazalil, oxpoconazole fumarate, peforazoate, prochloraz, or triflumizole. Plastic pots are filled with soil and Amaranthus retroflexus is seeded therein. The stem cuttings of sugar cane treated with the fungicides are planted in the soil in the pots at a depth of 2 cm. […] The test pots are then placed in a greenhouse. […]

[2] = test system: sugar cane; test: Pot test, herbicide sprayed on the soil surface after planting one-node stem cuttings: phytotoxicity
Experimental: as §1, §2
as §1, with “3 cm. The stem cuttings are treated with clothianidin, thiamethoxam, imidacloprid, dinotefuran, nitenpyram, acetamiprid, or thiacloprid. Plastic pots” for “3 cm. Plastic pots”, “sugar cane treated with the pesticides are planted” for “sugar cane are planted”
as §3
Stem cuttings of sugar cane, 30 cm to 40 cm long, are placed in wet soil to stimulate germination. Stem cuttings on which a bud grows to about 1 cm long are selected and the stem cuttings are cut to have one node and a length of 3 cm. The stem cuttings are treated with azaconazole, bitertanol, bromuconazole, cyproconazole, difenoconazole, diniconazole, epoxiconazole, fenbuconazole, fluquinoconazole, flusilazole, flutriafol, hexaconazole, imibenconazole, ipconazole, metconazole, myclobutanil, penconazole, propiconazole, prothioconazole, simeconazole, tebuconazole, tetraconazole, triadimenol, triticonazole, fenarimol, nuarimol, pyrifenox, imazalil, oxpoconazole fumarate, peforazoate, prochloraz, or triflumizole. Plastic pots are filled with soil and Amaranthus retroflexus is seeded therein. The stem cuttings of sugar cane treated with the fungicides are planted in the soil in the pots at a depth of 2 cm. […] The test pots are then placed in a greenhouse.
as §1, with “3 cm. The stem cuttings are treated with metalaxyl or metalaxyl-M. Plastic pots” for “3 cm. Plastic pots”

[3] = Example 5, cuttings treated with strobilurin fungicides (kresoxim-methyl, azoxystrobin etc.), soil surface spray on day of planting, four weeks after application

| Compound | herbicidal efficacy [1] | phytotoxicity [2, 3] | phytotoxicity ([2]; in vivo) |
| --- | --- | --- | --- |
| CCNc1nc(Cl)nc(NCC)n1 [simazine] | the control effect against the weed can be observed | no phytotoxicity problematic to sugar cane is observed | – |
| CSc1nnc(C(C)(C)C)c(=O)n1N [metribuzin] | the control effect against the weed can be observed | no phytotoxicity problematic to sugar cane is observed | – |
| COc1c(Cl)ccc(Cl)c1C(=O)[O-].[Na+] [dicamba-sodium] | the control effect against the weed can be observed | no phytotoxicity problematic to sugar cane is observed | – |
| CCc1cccc(C)c1N(C(=O)CCl)[C@@H](C)COC [S-metolachlor] | the control effect against the weed can be observed | no phytotoxicity problematic to sugar cane is observed | – |
| COC(=O)c1ccc(I)cc1S(=O)(=O)[N-]C(=O)Nc1nc(C)nc(OC)n1.[Na+] [iodosulfuron-methyl-sodium] | the control effect against the weed can be observed | no phytotoxicity problematic to sugar cane is observed | – |
| CN(C)C(=O)Nc1ccc(Cl)c(Cl)c1 [diuron] | the control effect against the weed can be observed | no phytotoxicity problematic to sugar cane is observed | – |
| bicyclopyrone | the control effect against the weed can be observed | no phytotoxicity problematic to sugar cane is observed | – |
| CNC.COc1c(Cl)ccc(Cl)c1C(=O)O [dicamba-dimethylamine] | the control effect against the weed can be observed | no phytotoxicity problematic to sugar cane is observed | – |
| COc1c(Cl)ccc(Cl)c1C(=O)O.NCCOCCO [dicamba-diglycolamine] | the control effect against the weed can be observed | no phytotoxicity problematic to sugar cane is observed | – |
| Cc1cnc(C2=NC(=O)C(C)(C(C)C)N2)c(C(=O)O)c1 (centres unmarked) [imazapic] | the control effect against the weed can be observed | – | no phytotoxicity problematic to sugar cane is observed |
| COc1c(Cl)ccc(Cl)c1C(=O)[O-].[K+] [dicamba-potassium] | the control effect against the weed can be observed | no phytotoxicity problematic to sugar cane is observed | – |
| CCc1cccc(CC)c1N(COC)C(=O)CCl [alachlor] | the control effect against the weed can be observed | no phytotoxicity problematic to sugar cane is observed | – |
| CCC(CC)Nc1c([N+](=O)[O-])cc(C)c(C)c1[N+](=O)[O-] [pendimethalin] | the control effect against the weed can be observed | no phytotoxicity problematic to sugar cane is observed | – |
| CCNc1nc(NC(C)C)nc(SC)n1 [ametryn] | the control effect against the weed can be observed | – | no phytotoxicity problematic to sugar cane is observed |
| CCOc1ccccc1OS(=O)(=O)NC(=O)Nc1nc(OC)cc(OC)n1 [ethoxysulfuron] | the control effect against the weed can be observed | – | no phytotoxicity problematic to sugar cane is observed |
| CS(=O)(=O)c1ccc(C(=O)C2C(=O)CCCC2=O)c([N+](=O)[O-])c1 [mesotrione] | the control effect against the weed can be observed | no phytotoxicity problematic to sugar cane is observed | – |
| CCCN(CCC)c1c([N+](=O)[O-])cc(C(F)(F)F)cc1[N+](=O)[O-] [trifluralin] | the control effect against the weed can be observed | no phytotoxicity problematic to sugar cane is observed | – |
| CN(C)c1nc(=O)n(C2CCCCC2)c(=O)n1C [hexazinone] | the control effect against the weed can be observed | – | no phytotoxicity problematic to sugar cane is observed |
| CCc1cccc(C)c1N(C(=O)CCl)C(C)COC (centres unmarked) [metolachlor] | the control effect against the weed can be observed | no phytotoxicity problematic to sugar cane is observed | – |
| CS(=O)(=O)c1cc(C(F)(F)F)ccc1C(=O)c1cnoc1C1CC1 [isoxaflutole] | the control effect against the weed can be observed | – | no phytotoxicity problematic to sugar cane is observed |
| CCNc1nc(Cl)nc(NC(C)C)n1 [atrazine] | the control effect against the weed can be observed | no phytotoxicity problematic to sugar cane is observed | – |
| CC1(C)CON(Cc2ccccc2Cl)C1=O [clomazon] | the control effect against the weed can be observed | – | – |
| CC(C)c1nn(C(=O)NC(C)(C)C)c(=O)n1N [amicarbazone] | the control effect against the weed can be observed | no phytotoxicity problematic to sugar cane is observed | – |
| COc1c(Cl)ccc(Cl)c1C(=O)O [dicamba] | the control effect against the weed can be observed | no phytotoxicity problematic to sugar cane is observed | – |
| COc1cc(OC)nc(NC(=O)[N-]S(=O)(=O)c2ncccc2OCC(F)(F)F)n1.[Na+] [trifloxysulfuron-sodium] | the control effect against the weed can be observed | no phytotoxicity problematic to sugar cane is observed | – |
| CNC(=O)N(C)c1nnc(C(C)(C)C)s1 [tebuthiuron] | the control effect against the weed can be observed | no phytotoxicity problematic to sugar cane is observed | – |
| COC(=O)c1c(Cl)nn(C)c1S(=O)(=O)NC(=O)Nc1nc(OC)cc(OC)n1 [halosulfuron-methyl] | the control effect against the weed can be observed | no phytotoxicity problematic to sugar cane is observed | – |
